Source: patent US10543212B2, “Substituted amines for treating cardiac diseases” (Cardurion Pharmaceuticals, LLC, priority 2017, dated 2020)
pIC50: −log10 of the molar value.

molecular target: T1, Full-length, GST-tagged, human CaMKIIδ (Homo sapiens, UniProt Q13557); assay: CaMKIIδ binding assay (TR-FRET with BODIPY-labeled probe ligand); settings: CaMKIIδ binding assay, results of Table 2
T1 construct: Full-Length, Glutathione-S-Transferase(GST)-Tagged, Human CaMKIIδ was purchased from Carna Biosciences; purchased Carna Biosciences 02-111
In short: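 TR-FRET probe-displacement binding: 0.5 nM GST-CaMKIIδ with 10 μg/mL calmodulin, 1 mM CaCl2, 0.21 nM Tb-anti-GST Ab and 300 nM BODIPY probe in HEPES pH 7.6 buffer. Eight-point 4-fold dilutions, 1 hr at room temperature. IC50 from logistic fit; 100% inhibition defined by 3 μM parent compound.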

T1 sequence (Q13557 1-478 isoform Q13557-12): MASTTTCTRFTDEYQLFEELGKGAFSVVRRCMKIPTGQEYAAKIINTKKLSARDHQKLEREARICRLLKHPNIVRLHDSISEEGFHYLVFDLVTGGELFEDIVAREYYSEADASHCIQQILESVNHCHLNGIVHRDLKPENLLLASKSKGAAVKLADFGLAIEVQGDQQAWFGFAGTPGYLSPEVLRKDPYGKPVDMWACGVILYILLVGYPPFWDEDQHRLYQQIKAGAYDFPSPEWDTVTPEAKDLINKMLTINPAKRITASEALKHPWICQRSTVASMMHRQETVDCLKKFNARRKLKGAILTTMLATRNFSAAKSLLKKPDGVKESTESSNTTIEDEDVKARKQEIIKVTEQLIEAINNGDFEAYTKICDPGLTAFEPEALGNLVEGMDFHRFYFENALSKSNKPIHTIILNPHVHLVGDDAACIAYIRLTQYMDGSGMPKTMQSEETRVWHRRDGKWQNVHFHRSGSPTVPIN

Row | Compound | pIC50
1 | C[C@@H](Cn1cnnn1)Oc1cc(-c2cnc(Nc3cc(N4CCC(N5CCOCC5)CC4)ccc3F)nc2)ccc1Cl [Example 580, (S)-5-(3-((1-(1H-tetrazol-1-yl)propan-2-yl)oxy)-4-chlorophenyl)-N-(2-fluoro-5-(4-morpholinopiperidin-1-yl)phenyl)pyrimidin-2-amine] | > 8.00
2 | COc1cc2c(cc1Nc1ncc(-c3ccc(Cl)c(O[C@@H](C)Cn4cnnn4)c3)cn1)CCN(C1COC1)C2 [Example 468, (S)-N-(5-(3-((1-(1H-tetrazol-1-yl)propan-2-yl)oxy)-4-chlorophenyl)pyrimidin-2-yl)-7-methoxy-2-(oxetan-3-yl)-1,2,3,4-tetrahydroisoquinolin-6-amine] | > 8.00
3 | C[C@@H](Cn1cnnn1)Oc1cc(-c2cnc(Nc3cn(C4CCN(C5CCC(F)(F)CC5)CC4)nc3C(F)(F)F)nc2)ccc1Cl [Example 555, (S)-5-(3-((1-(1H-tetrazol-1-yl)propan-2-yl)oxy)-4-chlorophenyl)-N-(1-(1-(4,4-difluorocyclohexyl)piperidin-4-yl)-3-(trifluoromethyl)-1H-pyrazol-4-yl)pyrimidin-2-amine] | > 8.00
4 | COc1cc2c(cc1Nc1ncc(-c3ccc(Cl)c(O[C@@H](C)Cn4cnnn4)c3)cn1)CN(CC(C)=O)CC2 [Example 510, (S)-1-(7-((5-(3-((1-(1H-tetrazol-1-yl)propan-2-yl)oxy)-4-chlorophenyl)pyrimidin-2-yl)amino)-6-methoxy-3,4-dihydroisoquinolin-2(1H)-yl)propan-2-one] | > 8.00

same assay, conditions: CaMKIIδ binding assay; activity class per Table 2

Row | Compound | pIC50
5 | C[C@@H](Cn1cnnn1)Oc1cc(-c2cnc(Nc3cn([C@H]4C[C@H](NC(=O)OC(C)(C)C)C4)nc3OCC(F)(F)F)nc2)ccc1Cl [Example 940, tert-butyl (trans-3-(4-((5-(3-(((S)-1-(1H-tetrazol-1-yl)propan-2-yl)oxy)-4-chlorophenyl)pyrimidin-2-yl)amino)-3-(2,2,2-trifluoroethoxy)-1H-pyrazol-1-yl)cyclobutyl)carbamate] | 7.00 to 8.00
6 | C[C@@H](Cn1cnnn1)Oc1cc(-c2cnc(Nc3cn(C4CC5(C4)CN(C4CCC4)C5)nc3C(F)(F)F)nc2)ccc1Cl [Example 921, (S)-5-(3-((1-(1H-tetrazol-1-yl)propan-2-yl)oxy)-4-chlorophenyl)-N-(1-(2-cyclobutyl-2-azaspiro[3.3]heptan-6-yl)-3-(trifluoromethyl)-1H-pyrazol-4-yl)pyrimidin-2-amine] | > 8.00
7 | C[C@@H](Cn1cnnn1)Oc1cc(-c2cnc(Nc3cn(C4CC5(C4)CN(C4(C#N)CCOCC4)C5)nc3OCC(F)(F)F)nc2)ccc1Cl [Example 1010, (S)-4-(6-(4-((5-(3-((1-(1H-tetrazol-1-yl)propan-2-yl)oxy)-4-chlorophenyl)pyrimidin-2-yl)amino)-3-(2,2,2-trifluoroethoxy)-1H-pyrazol-1-yl)-2-azaspiro[3.3]heptan-2-yl)tetrahydro-2H-pyran-4-carbonitrile] | > 8.00
8 | C[C@@H](Cn1cnnn1)Oc1cc(-c2cnc(Nc3cn(CC4(O)CCN(C5CCOCC5)CC4)nc3OCC(F)(F)F)nc2)ccc1Cl [Example 909, (S)-4-((4-((5-(3-((1-(1H-tetrazol-1-yl)propan-2-yl)oxy)-4-chlorophenyl)pyrimidin-2-yl)amino)-3-(2,2,2-trifluoroethoxy)-1H-pyrazol-1-yl)methyl)-1-(tetrahydro-2H-pyran-4-yl)piperidin-4-ol] | > 8.00
9 | CC(C)c1nn(C2CC3(C2)CN(C2CCOCC2)C3)cc1Nc1ncc(-c2ccc(Cl)c(O[C@@H](C)Cn3cnnn3)c2)cn1 [Example 936, (S)-5-(3-((1-(1H-tetrazol-1-yl)propan-2-yl)oxy)-4-chlorophenyl)-N-(3-isopropyl-1-(2-(tetrahydro-2H-pyran-4-yl)-2-azaspiro[3.3]heptan-6-yl)-1H-pyrazol-4-yl)pyrimidin-2-amine] | > 8.00

same assay, conditions: Table 2; CaMKIIδ binding assay, activity given as class A/B/C

Row | Compound | pIC50
10 | C[C@@H](Cn1cnnn1)Oc1cc(-c2cnc(Nc3cn([C@H]4CC[C@@H](N5CC(C)(O)C5)CC4)nc3OCC(F)(F)F)nc2)ccc1Cl [Example 801, 1-(cis-4-(4-((5-(3-(((S)-1-(1H-tetrazol-1-yl)propan-2-yl)oxy)-4-chlorophenyl)pyrimidin-2-yl)amino)-3-(2,2,2-trifluoroethoxy)-1H-pyrazol-1-yl)cyclohexyl)-3-methylazetidin-3-ol] | > 8.00
11 | COc1ccc(-n2cc(Nc3ncc(-c4ccc(Cl)c(O[C@@H](C)Cn5cnnn5)c4)cn3)c(C(F)(F)F)n2)cn1 [Example 867, (S)-5-(3-((1-(1H-tetrazol-1-yl)propan-2-yl)oxy)-4-chlorophenyl)-N-(1-(6-methoxypyridin-3-yl)-3-(trifluoromethyl)-1H-pyrazol-4-yl)pyrimidin-2-amine] | ≤ 7.00
12 | C[C@@H](Cn1cnnn1)Oc1cc(-c2cnc(Nc3cn([C@H]4CC[C@H](N5CC(C)(O)C5)CC4)nc3OCC(F)(F)F)nc2)ccc1Cl [Example 802, 1-(trans-4-(4-((5-(3-(((S)-1-(1H-tetrazol-1-yl)propan-2-yl)oxy)-4-chlorophenyl)pyrimidin-2-yl)amino)-3-(2,2,2-trifluoroethoxy)-1H-pyrazol-1-yl)cyclohexyl)-3-methylazetidin-3-ol] | > 8.00
13 | C[C@@H](Cn1cnnn1)Oc1cc(-c2cnc(Nc3cn(CC(C)(C)O)nc3OCC(F)(F)F)nc2)ccc1Cl [Example 816, (S)-1-(4-((5-(3-((1-(1H-tetrazol-1-yl)propan-2-yl)oxy)-4-chlorophenyl)pyrimidin-2-yl)amino)-3-(2,2,2-trifluoroethoxy)-1H-pyrazol-1-yl)-2-methylpropan-2-ol] | > 8.00
14 | C[C@@H](Cn1cnnn1)Oc1cc(-c2cnc(Nc3cn(-c4ccc(=O)[nH]c4)nc3C(F)(F)F)nc2)ccc1Cl [Example 868, (S)-5-(4-((5-(3-((1-(1H-tetrazol-1-yl)propan-2-yl)oxy)-4-chlorophenyl)pyrimidin-2-yl)amino)-3-(trifluoromethyl)-1H-pyrazol-1-yl)pyridin-2(1H)-one] | 7.00 to 8.00
15 | C[C@@H](Cn1cnnn1)Oc1cc(-c2cnc(Nc3cn(CC4(O)CCC4)nc3C(F)(F)F)nc2)ccc1Cl [Example 855, (S)-1-((4-((5-(3-((1-(1H-tetrazol-1-yl)propan-2-yl)oxy)-4-chlorophenyl)pyrimidin-2-yl)amino)-3-(trifluoromethyl)-1H-pyrazol-1-yl)methyl)cyclobutan-1-ol] | > 8.00
16 | C[C@@H](Cn1cnnn1)Oc1cc(-c2cnc(Nc3cn(C4CCN(C5CCOCC5)CC4)nc3OCC(F)F)nc2)ccc1Cl [Example 792, (S)-5-(3-((1-(1H-tetrazol-1-yl)propan-2-yl)oxy)-4-chlorophenyl)-N-(3-(2,2-difluoroethoxy)-1-(1-(tetrahydro-2H-pyran-4-yl)piperidin-4-yl)-1H-pyrazol-4-yl)pyrimidin-2-amine] | > 8.00
17 | C[C@@H](Cn1cnnn1)Oc1cc(-c2cnc(Nc3cn(CS(C)(=O)=O)nc3C(F)(F)F)nc2)ccc1Cl [Example 848, (S)-5-(3-((1-(1H-tetrazol-1-yl)propan-2-yl)oxy)-4-chlorophenyl)-N-(1-((methylsulfonyl)methyl)-3-(trifluoromethyl)-1H-pyrazol-4-yl)pyrimidin-2-amine] | > 8.00
18 | C[C@@H](Cn1cnnn1)Oc1cc(-c2cnc(Nc3cn([C@H]4CC[C@H](N5CCOCC5)CC4)nc3OC[C@@H]3CC3(F)F)nc2)ccc1Cl [Example 869] | > 8.00
19 | C[C@@H](Cn1cnnn1)Oc1cc(-c2cnc(Nc3cn([C@H]4CC[C@@H](N5CCOCC5)CC4)nc3OCC(F)(F)F)nc2)ccc1C#N [Example 818, 2-(((S)-1-(1H-tetrazol-1-yl)propan-2-yl)oxy)-4-(2-((1-(cis-4-morpholinocyclohexyl)-3-(2,2,2-trifluoroethoxy)-1H-pyrazol-4-yl)amino)pyrimidin-5-yl)benzonitrile] | > 8.00

same assay, conditions: Table 2; activity class for CaMKIIδ

Row | Compound | pIC50
20 | C[C@@H](Cn1cnnn1)Oc1cc(-c2cnc(Nc3cn(CCOCCO)nc3C(F)(F)F)nc2)ccc1Cl [Example 620, (S)-2-(2-(4-((5-(3-((1-(1H-tetrazol-1-yl)propan-2-yl)oxy)-4-chlorophenyl)pyrimidin-2-yl)amino)-3-(trifluoromethyl)-1H-pyrazol-1-yl)ethoxy)ethan-1-ol] | 7.00 to 8.00
21 | C[C@@H](Cn1cnnn1)Oc1cc(-c2cnc(Nc3cn(C4CCCN(C(=O)OC(C)(C)C)C4)nc3C(F)(F)F)nc2)ccc1Cl (stereo partly drawn) [Example 599, tert-butyl 3-(4-((5-(3-(((S)-1-(1H-tetrazol-1-yl)propan-2-yl)oxy)-4-chlorophenyl)pyrimidin-2-yl)amino)-3-(trifluoromethyl)-1H-pyrazol-1-yl)piperidine-1-carboxylate] | ≤ 7.00
22 | COc1nc(N2CCN(C3CC3)CC2)ccc1Nc1ncc(-c2ccc(Cl)c(O[C@@H](C)Cn3cnnn3)c2)cn1 [Example 671, (S)-5-(3-((1-(1H-tetrazol-1-yl)propan-2-yl)oxy)-4-chlorophenyl)-N-(6-(4-cyclopropylpiperazin-1-yl)-2-methoxypyridin-3-yl)pyrimidin-2-amine] | > 8.00
23 | COc1nc(N2CCN(C(=O)OC(C)(C)C)CC2)ccc1Nc1ncc(-c2ccc(Cl)c(O[C@@H](C)Cn3cnnn3)c2)cn1 [Example 613, tert-butyl (S)-4-(5-((5-(3-((1-(1H-tetrazol-1-yl)propan-2-yl)oxy)-4-chlorophenyl)pyrimidin-2-yl)amino)-6-methoxypyridin-2-yl)piperazine-1-carboxylate] | ≤ 7.00
24 | C[C@@H](Cn1cnnn1)Oc1cc(-c2cnc(Nc3cn(C4CCOCC4)nc3C(F)(F)F)nc2)ccc1Cl [Example 645, (S)-5-(3-((1-(1H-tetrazol-1-yl)propan-2-yl)oxy)-4-chlorophenyl)-N-(1-(tetrahydro-2H-pyran-4-yl)-3-(trifluoromethyl)-1H-pyrazol-4-yl)pyrimidin-2-amine] | 7.00 to 8.00
